Measurements reported in patent publication US9284325B2, “Spectinamides as anti-tuberculosis agents” (UNIVERSITY OF TENNESSEE RESEARCH FOUNDATION, priority 2009, dated 2016).
Values after ≈ are worked out from the molar mass of the structure shown. Structures can show the parent of a compound that is named as a salt. Where two headings read alike, the source gives them in different places.

Tests used:
M. tuberculosis H37Rv = assay: MIC determination by microbroth dilution, anti-tuberculosis activity; type: cell-based, Mycobacterium tuberculosis
[1] = test system: Proteus vulgaris ATCC 33420; assay: MIC determination by microbroth dilution; type: cell-based; details: for MIC: ATCC33420
Borrelia burgdorferi = details: spirochete Borrelia burgdorferi, Criswell et al.; cited from earlier work
[2] = Cytotoxicity, MTT cell proliferation assay; details: African green monkey, Vero epithelial cells (ATCC CCL-81)
[3] = test system: Strenotrophomonas maltophilia ATCC 13637; assay: MIC determination by microbroth dilution; type: cell-based
E. coli K12 = assay: MIC determination by microbroth dilution; type: cell-based, Escherichia coli; details: for MIC: Escherichia coli, K12
[4] = test system: Acinetobacter baumannii ATCC 19606; assay: MIC determination by microbroth dilution; type: cell-based; details: for MIC: ATCC19606
[5] = test system: Proteus mirabilis ATCC 25933; assay: MIC determination by microbroth dilution; type: cell-based; details: for MIC: ATCC25933
Vero epithelial cells [6] = details: African green monkey
[7] = test system: Strep. pneumoniae DAW27 or strain R6; assay: MIC determination by microbroth dilution; type: cell-based, Streptococcus pneumoniae; details: Strep. pneumoniae DAW27 or strain R6 (for 1443-1544); for MIC: Streptococcus pneumoniae, read-out: MIC S. pneumoniae
E. coli ribosomes = type: biochemical; details: for IC50, 50% inhibition of luciferase biosynthesis in S30 assay: E. coli S30 transcription/translation assay
[8] = test system: S. aureus 8325 or strain ATCC 29213; assay: MIC determination by microbroth dilution; type: cell-based, Staphylococcus aureus; details: S. aureus 8325 or strain ATCC 29213 (for 1471-1544); for MIC: Staphylococcus aureus, ATCC29213
E. faecalis ATCC 33186 = assay: MIC determination by microbroth dilution; type: cell-based, Enterococcus faecalis; details: for MIC: Enterococcus faecalis, ATCC33186
[9] = test system: Burkholderia cepacia ATCC 25416; assay: MIC determination by microbroth dilution; type: cell-based; details: for MIC: ATCC25416, read-out: MIC B. cepcia
[10] = test system: Strep. pyogenes ATCC 700294; assay: MIC determination by microbroth dilution; type: cell-based, Streptococcus pyogenes; details: for MIC: Streptococcus pyogenes, ATCC700294, read-out: MIC S. pyogenes
P. aeruginosa PAO1 = assay: MIC determination by microbroth dilution; type: cell-based, Pseudomonas aeruginosa; details: for MIC: Pseudomonas aeruginosa
[11] = test system: Klebsiella pneumoniae ATCC 33495; assay: MIC determination by microbroth dilution; type: cell-based; details: for MIC: ATCC33495
E. coli K12 ΔtolC = assay: microbe, parasite or virus in culture; type: cell-based; details: for MIC: Escherichia coli, read-out: MIC E. coli K12 ΔtolC
B. anthracis Sterne 34F2 = assay: microbe, parasite or virus in culture; type: cell-based, Bacillus anthracis; details: for MIC: Bacillus anthracis, STERNE34F2, read-out: MIC B. anthracis 34F2
[12] = test system: protein synthesis in whole cell M. bovis BCG; type: cell-based
Vero epithelial cells [13] = assay: Cytotoxicity, MTT cell proliferation assay; details: Vero IC50 / M. tuberculosis MIC
[14] = Mycobacterium tuberculosis, H37RV, 168 h, read-out: MIC

Row | Compound | MIC (M. tuberculosis H37Rv; [14]) [µg/mL] | MIC [1] [µg/mL] | frequency at which resistance arises (Borrelia burgdorferi) | IC50 at 72 h [2] [µg/mL] | MIC [3] [µg/mL] | MIC (E. coli K12) [µg/mL] | MIC [4] [µg/mL] | MIC [5] [µg/mL] | therapeutic index (IC50 divided by the MIC) (Vero epithelial cells [6]) | MIC [7] [µg/mL] | IC50, 50% inhibition of luciferase biosynthesis in S30 assay (E. coli ribosomes) [µg/mL] | MIC [8] [µg/mL] | MIC (E. faecalis ATCC 33186) [µg/mL] | MIC [9] [µg/mL] | MIC [10] [µg/mL] | MIC (P. aeruginosa PAO1) [µg/mL] | MIC [11] [µg/mL] | MIC (E. coli K12 ΔtolC) [µg/mL] | MIC (B. anthracis Sterne 34F2) [µg/mL] | further results
1 | CN[C@@H]1[C@H](O)[C@H](NC)[C@H]2O[C@@]3(O)C(=O)C[C@@H](C)O[C@H]3O[C@@H]2[C@H]1O [Spectinomycin, reference compound] | 25 (≈ 75.2 µM) | 50 (≈ 150 µM) | 10^−6 | 1030 (≈ 3100 µM) | > 200 | 12.5 to 50 (≈ 37.6 to 150 µM) | > 200 | > 200 | 41.5 | 50 (≈ 150 µM) | 0.32 | 25 (≈ 75.2 µM) | 50 (≈ 150 µM) | > 200 | 25 (≈ 75.2 µM) | 100 (≈ 301 µM) | 50 (≈ 150 µM) | 12.5 (≈ 37.6 µM) | 25 (≈ 75.2 µM) | IC50 (E. coli ribosomes; E. coli S30 system, FIG. 4, read-out: concentration causing 50% reduction in the synthesis of luciferase): 900 nM
2 | [H]/N=C(/N)N[C@H]1[C@H](O)[C@@H](O)[C@H](O[C@@H]2O[C@@H](C)[C@](O)(C=O)[C@H]2O[C@@H]2O[C@@H](CO)[C@H](O)[C@@H](O)[C@@H]2NC)[C@@H](N/C(N)=N\[H])[C@@H]1O [Streptomycin, reference compound] | – | 1.6 (≈ 2.75 µM) | ≥ 10^−7 | 1540 (≈ 2640 µM) | 3.12 (≈ 5.36 µM) | 0.8 (≈ 1.38 µM) | > 200 | 50 (≈ 86 µM) | 7680.5 | 12.5 (≈ 21.5 µM) | 0.27 | 0.4 (≈ 0.688 µM) | 50 (≈ 86 µM) | > 200 | 25 (≈ 43 µM) | 25 (≈ 43 µM) | > 200 | 1.6 (≈ 2.75 µM) | 0.8 (≈ 1.38 µM) | Activity (MIC) of 1329 compared to streptomycin (M. tuberculosis H37Rv): 0.2; inhibition of protein synthesis [12]: inhibited protein synthesis
3 | CC[C@@H](CO)NCCN[C@@H](CC)CO [Ethambutol] | – | – | – | 732 (≈ 3580 µM) | – | – | – | – | – | – | – | – | – | – | – | – | – | – | – | therapeutic index (IC50 divided by the MIC) (Vero epithelial cells [13]): 913.8
4 | 3′-Dihydro-3′-deoxy-4(R)-dodecanoylamino spectinomycin Dihydrochloride [Compound 1366] | – | – | – | – | – | – | – | – | – | – | 15.3 | – | – | – | – | – | – | – | – | MIC (M. tuberculosis H37Rv): 1.6 µg/mL; MIC P. vul [1]: >200 µg/mL; MIC S. mal [3]: 25 µg/mL; MIC E. coli K12 (E. coli K12; E. coli K12): >200 µg/mL; MIC A. bau. [4]: >200 µg/mL; MIC P. mir [5]: >200 µg/mL; MIC S. pneumoniae [7]: 25 µg/mL; MIC S. aureus [8]: 25 µg/mL; MIC E. faecalis (E. faecalis ATCC 33186): 25 µg/mL; MIC B. cepcia [9]: >200 µg/mL; MIC S. pyogenes [10]: >200 µg/mL; MIC P. aer. (P. aeruginosa PAO1): 50 µg/mL; MIC K. pneu. [11]: >200 µg/mL; MIC E. coli K12 ΔtolC (E. coli K12 ΔtolC; tolC knockout strain, defective multi-drug efflux pump): 12.5 µg/mL; MIC B. anthracis 34F2 (B. anthracis Sterne 34F2): >200 µg/mL
5 | CN[C@@H]1[C@H](O)[C@H](NC)C2O[C@]3(O)C(OC2[C@H]1O)O[C@H](C)C[C@H]3NC(=O)Cc1cscn1 (stereo partly drawn) [Compound 1443, 3′-Dihydro-3′-deoxy-4(R)-(thiazol-4-yl)acetylamino spectinomycin trihydrobromide] | 1.6 | > 200 | – | – | > 200 | 100 | > 200 | > 200 | – | 12.5 | 0.29 | 50 | 50 | > 200 | 6.25 | > 200 | 100 | 200 | 1.6 | –
6 | CN[C@@H]1[C@H](O)[C@H](NC)C2O[C@]3(O)C(OC2[C@H]1O)O[C@H](C)C[C@H]3NC(=O)Cc1csc(N)n1 (stereo partly drawn) [Compound 1444, 3′-Dihydro-3′-deoxy-4(R)-(2-aminothiazol-4-yl)acetylamino spectinomycin trihydrobromide] | 3.1 | > 200 | – | – | > 200 | 100 | > 200 | > 200 | – | 25 | 0.12 | 100 | 50 | > 200 | 25 | > 200 | 100 | 200 | 6.25 | –
